Test results reported in paper PMC10508631, “Development of an antibody fused with an antimicrobial peptide targeting Pseudomonas aeruginosa: A new approach to prevent and treat bacterial infections” (PLOS Pathogens, 2023).
Converted amounts (≈) assume the structure as drawn. Where a SMILES comes first, the peptide text is derived from it.

Tests used:
[1] = test system: 293T human cell line; experiment: Mammalian cell cytotoxicity (CellTiter Glo); format: cell-based; settings: for Cytotox CC50: 293T cells, 10,000 cells/well, three days, 37°C, CellTiter Glo luminescence
Procedure: On day one, cells from an established 293T human cell line were seeded onto 96-well flat-bottom white plates (10,000 293T cells/well). On day two, dilution plates were prepared by diluting compound in cell growth medium to two times the final starting concentration and then carrying out serial two-fold dilutions across the plate. Medium from the cell growth assay plates was then aspirated, and 50 μl from the compound dilution plates were transferred to the assay plates. Fifty microliters of fresh media were then added to all the wells. The plates were incubated at 37°C, 5% CO2 for three days. […]. Media from the assay plates was aspirated, and 100 μl of CellTiter Glo/growth media mix was added to all wells. After five minutes, luminescence was read, and% inhibition vs. compound concentration was plotted.

[2] = MIC in human serum; format: cell-based; settings: ratio to MIC, strain not given, NA = no activity in human serum
[3] = test system: P. aeruginosa ATCC 27853; format: cell-based, Pseudomonas aeruginosa; settings: for MIC P. aeruginosa ATCC 27853: CLSI microdilution, 2-fold dilutions, ~5 x 10^5 cells/ml, 37°C, 18 hours, MIC = lowest concentration inhibiting growth by at least 80%
Procedure: (§1) All plates were placed at 37°C overnight.

[4] = test system: P. aeruginosa ATCC 39324; format: cell-based, Pseudomonas aeruginosa; settings: for MIC P. aeruginosa ATCC 39324: CLSI microdilution, 2-fold dilutions, ~5 x 10^5 cells/ml, 37°C, 18 hours, MIC = at least 80% growth inhibition
Procedure: as §1

[5] = test system: S. aureus 29213
Procedure: (§2) MICs and a killing assay were performed in this study. MICs were determined according to CLSI guidelines, using 2-fold serial compound dilutions in 96-well microtiter plates. Briefly, compounds were diluted in water across a mother plate and then 2 μl were stamped to assay plates—one plate for each strain to be tested. Bacterial strains were sub-cultured overnight on agar plates at 37°C. […] These concentrated cultures were diluted 1:200 in growth media to approximately 5 x 10^5 cells/ml. All assay plates received 100 μL diluted culture per well. All plates were placed at 37°C overnight. […] Wells at and above the MIC should appear devoid of growth when visualized.

[6] = test system: E. coli ATCC 25922
Procedure: as §2

[7] = test system: red blood cells (defibrinated sheep's blood); experiment: RBC hemolysis assay; format: cell-based; settings: RBCs
Procedure: Test substances were diluted 2-fold in water across a 96-well polypropylene mother plate, leaving one no-compound control. Two microliters from each well were stamped onto a 96-well polystyrene assay plate. A red blood cell suspension was made by mixing 0.2% defibrinated sheep’s blood (Hardy Diagnostics DSB100) in PBS. All assay plates received 100 μl/well of the red blood cell suspension. Plates were then incubated at 37°C overnight.

[8] = test system: P. aeruginosa; experiment: Killing assay, strains not itemised; format: cell-based, Pseudomonas aeruginosa; settings: P. aeruginosa ATCC strains; 1 x10^4 cells/ml in PBS + 1% BSA, 37°C, 90 minutes, CFU plating; EC50 = lowest concentration causing > 50% colony reduction
Procedure: (§3) Overnight plates were used to seed 30 ml cultures of growth media in 250 ml vented flasks. Cultures were grown aerobically at 37°C with shaking at 150 rpm. Growth was monitored at A600, and bacterial cells were harvested at mid-log growth. Ten milliliters of culture were pelleted at 4000 x g for 10 minutes and washed once with PBS + 1% BSA (PBSA) prior to resuspension in 2 ml of PBSA. The concentrated culture was used to seed 6 ml tubes of PBSA to an OD giving a concentration of 1 x 10^8 cells/ml. Cultures were diluted to 1 x10^4 cells/ml in PBSA. Test substances were diluted in PBSA, and 50 μL per concentration tested were loaded into a 96-well polypropylene microtiter plate. Fifty microliters of diluted culture were added to all test wells and all no-compound control wells. Plates were shaken and then incubated at 37°C for 90 minutes without shaking. Ten microliters from each assay well were plated onto agar plates and incubated at 37°C overnight. Percent killing was determined by the CFU for test wells vs. the CFU for no-compound control wells.

[9] = in vitro; settings: human, normal human serum diluted in water
Procedure: The supernatant was warmed to 37°C in a water bath. Twenty microliters of each test article were placed in a 2.0 ml round bottom microfuge tube. Two milliliters of diluted NHS were added to each tube, which was immediately vortexed, followed by transfer of 200 μl to a fresh microfuge tube placed at 37°C in a rotating rack.
Twenty microliters of each test article at 10 mg/ml were placed in a 2.0 mL round-bottomed microfuge tube. […] The tubes were immediately vortexed, and 200 μl were transferred to a fresh microfuge tube with 40 μl of 1% trichloroacetic acid (TCA). Assay tubes were placed at 37°C in a rotating rack. […] Supernatant from each tube was collected and frozen at -20°C for analysis. Mass spectrometry was used to quantify the percentage of test substance still intact.

[10] = test system: P. aeruginosa ATCC 27853 and P. aeruginosa ATCC 39324; settings: two ATCC strains of P. aeruginosa, CLSI
Procedure: as §2

[11] = test system: P. aeruginosa BAA-2110; experiment: Killing assay; format: cell-based, Pseudomonas aeruginosa; settings: third-generation cephalosporin-resistant strain; PBS + 1% BSA, 37°C, 90 minutes
Procedure: as §3

[12] = molar equivalent of the MIC, unit not given
[13] = CLSI microdilution, 2-fold dilutions, ~5 x 10^5 cells/ml, 37°C, 18 hours, MIC = at least 80% growth inhibition

Row | Structure (SMILES) | Cytotox CC50 [1] [µg/mL] | Human Serum hsMIC/MIC [2] | MIC P. aeruginosa ATCC 27853 [3] [µg/mL] | MIC P. aeruginosa ATCC 27853, molar equivalents (number in parentheses) [3, 12] | MIC P. aeruginosa ATCC 39324 [4] [µg/mL] | MIC P. aeruginosa ATCC 39324, molar equivalents (number in parentheses) [4, 12] | MIC S. aureus 29213 [5, 13] [µg/mL] | MIC S. aureus 29213, molar equivalents (number in parentheses) [5, 12] | MIC E. coli ATCC 25922 [6, 13] [µg/mL] | MIC E. coli ATCC 25922, molar equivalents (number in parentheses) [6, 12] | cytotoxic activity ([1]; mammalian cells / 293T) | hemolytic activity [7] | EC50 in the killing assay [8] [µg/mL] | cytotoxicity against 293T relative to the MIC [1] | half-life at 0.099 mg/ml [9] [min] | MIC in an MIC assay [10] [µg/mL] | EC50 killing assay, BAA-2110 [11] [µg/mL]
1 | CC(C)(O/N=C(\C(=O)N[C@@H]1C(=O)N2C(C(=O)[O-])=C(C[n+]3ccccc3)CS[C@H]12)c1csc(N)n1)C(=O)O [Ceftazadime, reference compound] | 550 | 1 | 1 (≈ 1.83 µM) | 1.8 | 1 (≈ 1.83 µM) | 1.8 | 4 (≈ 7.32 µM) | 7.3 | 0.25 (≈ 0.457 µM) | 0.5 |  |  |  |  |  |  | 
2 | CC[C@@H](C)[C@@H](NC(=O)[C@H](NC(=O)[C@@H](CCCNC(=N)N)NC(=O)[C@H]1CCCN1C(=O)[C@@H](CCCCN)NC(=O)[C@@H](CCCCN)NC(=O)[C@@H](Cc1ccccc1)NC(=O)[C@@H](Cc1ccccc1)NC(=O)[C@@H](CCC(=O)O)NC(=O)[C@@H](CCCCN)NC(=O)[C@@H](C)NC(=O)[C@@H](CCCNC(=N)N)NC(=O)[C@@H](CCCCN)NC(=O)[C@@H](CCCCN)NC(=O)[C@H](NC(=O)[C@@H](CO)NC(=O)[C@@H](CCCCN)NC(=O)[C@@H](CCCCN)NC(=O)[C@@H](CC(C)C)NC(=O)[C@@H](CCCCN)NC(=O)[C@@H](CCCNC(=N)N)NC(=O)[C@@H](Cc1ccccc1)NC(=O)[C@@H](Cc1ccccc1)NC(=O)[C@@H](CCCCN)NC(=O)CNC(=O)CNC(=O)CN)C(C)C)C(C)C)C(=O)NCC(=O)N[C@@H](C(=O)N[C@H](CO)C(=O)N[C@@H](C(=O)N1CCC[C@@H]1C(=O)N[C@H](Cc1ccccc1)C(=O)O)[C@H](C)CC)C(C)C [D297] (HELM PEPTIDE1{G.G.G.[dK].[dF].[dF].[dR].[dK].[dL].[dK].[dK].[dS].[dV].[dK].[dK].[dR].[dA].[dK].[dE].[dF].[dF].[dK].[dK].[dP].[dR].[dV].[dI].G.[dV].[dS].[dI].[dP].[dF]}$$$$V2.0) |  |  |  |  |  |  |  |  |  |  | low | low |  |  |  |  | 
3 | CC[C@H](C)[C@H](NC(=O)[C@@H](NC(=O)[C@H](CCCNC(=N)N)NC(=O)[C@@H]1CCCN1C(=O)[C@H](CCCCN)NC(=O)[C@H](CCCCN)NC(=O)[C@H](Cc1ccccc1)NC(=O)[C@H](Cc1ccccc1)NC(=O)[C@H](CCC(=O)O)NC(=O)[C@H](CCCCN)NC(=O)[C@H](C)NC(=O)[C@H](CCCNC(=N)N)NC(=O)[C@H](CCCCN)NC(=O)[C@H](CCCCN)NC(=O)[C@@H](NC(=O)[C@H](CO)NC(=O)[C@H](CCCCN)NC(=O)[C@H](CCCCN)NC(=O)[C@H](CC(C)C)NC(=O)[C@H](CCCCN)NC(=O)[C@H](CCCNC(=N)N)NC(=O)[C@H](Cc1ccccc1)NC(=O)[C@H](Cc1ccccc1)NC(=O)[C@H](CCCCN)NC(=O)CNC(=O)CNC(=O)CN)C(C)C)C(C)C)C(=O)NCC(=O)N[C@H](C(=O)N[C@@H](CO)C(=O)N[C@H](C(=O)N1CCC[C@H]1C(=O)N[C@@H](Cc1ccccc1)C(=O)O)[C@@H](C)CC)C(C)C [P297] (H-GGGKFFRKLKKSVKKRAKEFFKKPRVIGVSIPF-OH) | 780 |  | 4 (≈ 1.05 µM) |  | 2 (≈ 0.525 µM) |  |  |  |  |  |  |  | 0.14 to 0.28 | approximately 200 fold | ~20 | 2 to 4 | 0.14 to 0.28
